Several values for one entry are separate records, joined by “and”; a condition that tells them apart may be missing. Equal values may be shown once. Toxic doses and inconclusive results are not listed.
Tested on: BDF1 mice, P388 leukemia ip, median survival T/C
Test: NCI In Vivo Anticancer Drug Screen. Data for tumor model P388 Leukemia (intraperitoneal) in B6D2F1 (BDF1) mice
Settings: endpoint: median survival time, higher = longer survival
Method in brief: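 Transplantable tumour in mice; compound vs vehicle dosing; survival scored; ratio of treated to control reported.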

**Q.** With `O=C1c2cccc(O)c2C(=O)c2c(O)cc(CO)cc21` as the compound, how does the T/C (dose: 8.8 mg/kg/injection, schedule: Q01DX010 (ip), vehicle: other) read?
**A.** The T/C was 100 % of control.

**Q.** And the T/C (dose: 10.0 mg/kg/injection, schedule: Q01DX010 (ip), vehicle: carboxymethylcellulose (CMC))?
**A.** The T/C was 122 % of control.

**Q.** What about the T/C (dose: 10.0 mg/kg/injection, schedule: Q01DX010 (ip), vehicle: other) of the same compound?
**A.** Its T/C is 108 % of control.

**Q.** What about the T/C (dose: 13.0 mg/kg/injection, schedule: Q01DX010 (ip), vehicle: other) of the same compound?
**A.** Its T/C is 111 % of control.

**Q.** What about the T/C (dose: 16.0 mg/kg/injection, schedule: Q01DX009 (ip), vehicle: gum acacia) of the same compound?
**A.** The T/C was 97 % of control.

**Q.** And the T/C (dose: 20.0 mg/kg/injection, schedule: Q01DX009 (ip), vehicle: gum acacia)?
**A.** Its T/C is 106 % of control.

**Q.** What about the T/C (dose: 20.0 mg/kg/injection, schedule: Q01DX010 (ip), vehicle: carboxymethylcellulose (CMC)) of the same compound?
**A.** The T/C was 94 % of control.

**Q.** And the T/C (dose: 20.0 mg/kg/injection, schedule: Q01DX010 (ip), vehicle: other)?
**A.** The T/C was 154 % of control.

**Q.** What about the T/C (dose: 25.0 mg/kg/injection, schedule: Q01DX009 (ip), vehicle: gum acacia) of the same compound?
**A.** Its T/C is 97 % of control.

**Q.** What about the T/C (dose: 40.0 mg/kg/injection, schedule: Q01DX010 (ip), vehicle: carboxymethylcellulose (CMC)) of the same compound?
**A.** The T/C was 116 % of control.

**Q.** And the T/C (dose: 40.0 mg/kg/injection, schedule: Q01DX010 (ip), vehicle: other)?
**A.** Its T/C is 120 % of control.

**Q.** And the T/C (dose: 80.0 mg/kg/injection, schedule: Q01DX010 (ip), vehicle: carboxymethylcellulose (CMC))?
**A.** Its T/C is 122 % of control.

**Q.** What does the source list for `Cc1ccc(Sc2ccccc2C(C)(C)O)cc1`?
**A.** T/C (dose: 50.0 mg/kg/injection, schedule: Q01DX009 (ip), vehicle: saline with Tween-80): 101 % of control; T/C (dose: 100.0 mg/kg/injection, schedule: Q01DX009 (ip), vehicle: saline with Tween-80): 101 % of control; T/C (dose: 200.0 mg/kg/injection, schedule: Q01DX009 (ip), vehicle: saline with Tween-80): 95 % of control

**Q.** `COC(=O)C(C)C(=O)OC` was tested. Which T/C (dose: 100.0 mg/kg/injection, schedule: Q01DX001 (ip), vehicle: saline) did it give?
**A.** Its T/C is 100 % of control.

**Q.** And the T/C (dose: 100.0 mg/kg/injection, schedule: Q01DX009 (ip), vehicle: saline)?
**A.** Its T/C is 90 % of control.

**Q.** And the T/C (dose: 200.0 mg/kg/injection, schedule: Q01DX001 (ip), vehicle: saline)?
**A.** The T/C was 100 % of control.

**Q.** And the T/C (dose: 200.0 mg/kg/injection, schedule: Q01DX009 (ip), vehicle: saline)?
**A.** The T/C was 100 % of control.

**Q.** And the T/C (dose: 400.0 mg/kg/injection, schedule: Q01DX001 (ip), vehicle: saline)?
**A.** Its T/C is 113 % of control.

**Q.** And the T/C (dose: 400.0 mg/kg/injection, schedule: Q01DX009 (ip), vehicle: saline)?
**A.** Its T/C is 109 % of control.

**Q.** For `CC(C)=CCC/C(C)=C/CNCCc1c[nH]c2ccccc12`, which T/C (dose: 3.12 mg/kg/injection, schedule: Q01DX009 (ip), vehicle: Klucel (hydroxypropylcellulose) (HPC)) is on record?
**A.** The T/C was 117 % of control.

**Q.** And the T/C (dose: 6.25 mg/kg/injection, schedule: Q01DX009 (ip), vehicle: Klucel (hydroxypropylcellulose) (HPC))?
**A.** Its T/C is 104 % of control and 117 % of control.

**Q.** What about the T/C (dose: 12.5 mg/kg/injection, schedule: Q01DX009 (ip), vehicle: Klucel (hydroxypropylcellulose) (HPC)) of the same compound?
**A.** Its T/C is 117 % of control.

**Q.** What about the T/C (dose: 25.0 mg/kg/injection, schedule: Q01DX009 (ip), vehicle: Klucel (hydroxypropylcellulose) (HPC)) of the same compound?
**A.** The T/C was 120 % of control.

**Q.** What about the T/C (dose: 50.0 mg/kg/injection, schedule: Q01DX009 (ip), vehicle: Klucel (hydroxypropylcellulose) (HPC)) of the same compound?
**A.** Its T/C is 120 % of control.

**Q.** What does the source list for `CSc1ccc(N=C=C(c2ccccc2)c2ccccc2)cc1`?
**A.** T/C (dose: 6.25 mg/kg/injection, schedule: Q01DX009 (ip), vehicle: saline with Tween-80): 95 % of control; T/C (dose: 12.5 mg/kg/injection, schedule: Q01DX009 (ip), vehicle: saline with Tween-80): 90 % of control; T/C (dose: 25.0 mg/kg/injection, schedule: Q01DX009 (ip), vehicle: saline with Tween-80): 90 % of control

**Q.** With `CCN(Cc1ccccc1)c1ccc(/C=C/c2nccc3ccccc23)cc1` as the compound, how does the T/C (dose: 100.0 mg/kg/injection, schedule: Q04DX002 (ip), vehicle: saline with Tween-80) read?
**A.** Its T/C is 116 % of control.

**Q.** What about the T/C (dose: 200.0 mg/kg/injection, schedule: Q04DX002 (ip), vehicle: saline with Tween-80) of the same compound?
**A.** The T/C was 116 % of control.

**Q.** What about the T/C (dose: 266.0 mg/kg/injection, schedule: Q04DX002 (ip), vehicle: saline with Tween-80) of the same compound?
**A.** Its T/C is 89 % of control.

**Q.** What about the T/C (dose: 400.0 mg/kg/injection, schedule: Q04DX002 (ip), vehicle: saline with Tween-80) of the same compound?
**A.** Its T/C is 123 % of control.

**Q.** And the T/C (dose: 600.0 mg/kg/injection, schedule: Q04DX002 (ip), vehicle: saline with Tween-80)?
**A.** Its T/C is 117 % of control.

**Q.** With `ClCCc1cnc[nH]1` as the compound, how does the T/C (dose: 6.25 mg/kg/injection, schedule: Q04DX003 (ip), vehicle: water) read?
**A.** Its T/C is 104 % of control.

**Q.** And the T/C (dose: 12.5 mg/kg/injection, schedule: Q04DX003 (ip), vehicle: water)?
**A.** The T/C was 108 % of control.

**Q.** And the T/C (dose: 25.0 mg/kg/injection, schedule: Q04DX003 (ip), vehicle: water)?
**A.** The T/C was 112 % of control.

**Q.** And the T/C (dose: 50.0 mg/kg/injection, schedule: Q04DX003 (ip), vehicle: water)?
**A.** The T/C was 105 % of control.

**Q.** And the T/C (dose: 100.0 mg/kg/injection, schedule: Q04DX003 (ip), vehicle: water)?
**A.** Its T/C is 98 % of control.

**Q.** Which results are given for `Cc1ccc(CNc2ccccc2)cc1`?
**A.** T/C (dose: 25.0 mg/kg/injection, schedule: Q04DX003 (ip), vehicle: other): 120 % of control; T/C (dose: 50.0 mg/kg/injection, schedule: Q04DX003 (ip), vehicle: other): 105 % of control; T/C (dose: 100.0 mg/kg/injection, schedule: Q04DX003 (ip), vehicle: other): 110 % of control

— PubChem BioAssay AID328 (DTP/NCI, 2004)
